Assay results published in patent US10336696B2, “Bicarbazole compound, photo-curable composition, cured product thereof, curable composition for plastic lens, and plastic lens” (DIC Corporation, priority 2014, dated 2019).

Key:
[1] = Refractive index of compounds (NMP solutions, extrapolated); type: physicochemical; conditions: compound diluted with NMP, three concentrations, Abbe refractometer, 589 nm (D line)
Procedure: The refractive index of each of the compounds was determined as follows. A compound was diluted with N-methylpyrrolidone (NMP) to prepare three samples having different concentrations. Liquid refractive indices of the respective solutions were measured, and the measured data was extrapolated to calculate the refractive index.
Measuring device: Abbe refractometer NRA-2T, manufactured by Atago Co., Ltd.
Measurement wavelength: 589 nm (D line)

[2] = Solubility in o-phenylphenoxyethyl acrylate; type: physicochemical; design: key: A: Soluble; B: Insoluble; conditions: for Solubility, 10 mass %: compound concentration 10% by mass; for Solubility, 50 mass %: compound concentration 50% by mass
Procedure: The solubility was evaluated on the basis of whether a compound was soluble or insoluble in o-phenylphenoxyethyl acrylate. The evaluation was performed at two levels at which the compound concentration was 10% by mass and 50% by mass.

| SMILES | Liquid refractive index [1] | Solubility, 10 mass % [2] | Solubility, 50 mass % [2] |
| --- | --- | --- | --- |
| C=Cn1c2ccccc2c2ccccc21 [Comparative Example 1, 9-vinylcarbazole, reference compound] | 1.674 | A | B |
| c1ccc2c(c1)[nH]c1ccc(-c3ccc4[nH]c5ccccc5c4c3)cc12 [Comparative Example 2, 3,3′-bicarbazole, reference compound] | 1.765 | B | B |
| C=CC(=O)n1c2ccccc2c2cc(-c3cccc4c5ccccc5n(C(=O)C=C)c34)ccc21 [Example 1, 9,9′-diacryloyl-1,3′-bicarbazole] | 1.723 | A | B |
| C=Cn1c2ccccc2c2cc(-c3cccc4c5ccccc5n(C=C)c34)ccc21 [Example 2, 9,9′-divinyl-1,3′-bicarbazole] | 1.735 | A | A |
| C=CC(=O)OCCn1c2ccccc2c2cc(-c3cccc4c5ccccc5n(CCOC(=O)C=C)c34)ccc21 [Example 3, 9,9′-bis(acryloyloxyethyl)-1,3′-bicarbazole] | 1.664 | A | A |
| c1ccc2c(c1)[nH]c1ccc(-c3cccc4c3[nH]c3ccccc34)cc12 [Synthesis Example 1, 1,3′-bicarbazole] | 1.76 | A | B |
